Where two headings read alike, the source gives them in different places.

Data set [1] in a line: Pharmacokinetics (PK) of the compound in rats. The note with it: rat, plasma, SD rats; for bioavailability / AUC(0-t) / clearance / Vd / half-life: n = 3; for bioavailability: read-out: F (absolute bioavailability); for clearance: read-out: Cl_obs iv (clearance) (converted); for Vd: read-out: Vz_obs iv (apparent volume of distribution); for Tmax: n = 3, median, read-out: Tmax po (time to maximum plasma concentration). The data set is classed as in vivo. The method, then:
Experimental Example 3: Pharmacokinetics (PK) of the Compound in Rats
The test compound was dissolved in a mixture of 5% v/v DMSO+20% v/v (30% v/v solutol (polyethylene glycol-15 hydroxystearate purchased from BASF, batch no. 84773247G0))+75% v/v brine to prepare a solution, which was then administered to SD rats by oral gavage at a dose of 5.0 mg/kg. Blood samples were collected at 15 min, 30 min, 1 h, 2 h, 4 h, 6 h, 8 h and 24 h.
The test compound was dissolved in a mixture of 5% v/v DMSO+20% v/v (30% v/v solutol)+75% v/v brine to prepare a solution, which was administered to SD rats by intravenous bolus at a dose of 1 mg/kg. Blood samples were collected at 5 min, 15 min, 30 min, 1 h, 2 h, 4 h, 6 h, 8 h and 24 h.
The animals were fixed, with tails warmed in a water bath 10 min before each sampling time point. About 100 μL of blood was collected via the tail vein, and the blood samples were collected in anticoagulation tubes containing EDTA-K2. The blood samples were centrifuged at 8,000 rpm for 6 min at 4° C. to give plasma samples within 30 min after collection. The plasma samples were stored in a refrigerator at −80° C. before test.
The sample was taken out from the −80° C. refrigerator, and vortexed for 5 min after naturally thawed at room temperature. 20 μL of plasma sample was pipetted into a 1.5 mL centrifuge tube, and 200 μL of 100 ng/mL internal standard working solution (a solution of tolbutamide in methanol) was added. The resulting mixture was mixed, vortexed for 5 min, and then centrifuged at 12,000 rpm for 5 min. 50 μL of the supernatant was pipetted into a 96-well plate with 150 μL of water per well, and the plate was vortexed for 5 min before LC-MS/MS analysis.
The concentration was calculated by Analyst 1.6.3 from AB Sciex. Parameters such as mean, standard deviation and coefficient of variation (excluding those output directly by Analyst 1.6.3) were calculated by Microsoft Excel. PK parameters were calculated by Pharsight Phoenix 6.1 software NCA (Tmax was in median).

For data set [2], the target named is T1, Peptidylarginine deiminase 4 (PAD4) (Homo sapiens, UniProt Q9UM07).
T1 construct: purchased Cayman 10500
Briefly: Assay of enzyme-inhibiting activity (PAD4, FAM-AcH4(1-5) peptide, Caliper detection). The data set is classed as biochemical. The following applies: 10 nM PAD4, 5 μM peptide, 0.1 mM Ca2+, pH 8.0. The method, then: Experimental Example 1: Assay of Enzyme-Inhibiting Activity of Compound
Sample: The compound disclosed herein prepared according to exemplary methods.
Peptidylarginine deiminase 4 (PAD4): Cayman, Cat. No. 10500, Lot. No. 0519694;
Carboxyfluorescein-labeled peptide (Peptide FAM-AcH4 (1-5)): GL Biochem, Cat. No. 0200046, Lot. No. P161110-TL545976;
An appropriate amount of the compound to be assayed was dissolved in DMSO to 10 mM. An appropriate amount of 10 mM mother liquor of the compound to be assayed was diluted to 1.5 mM with DMSO, and the solution was then serially diluted 3-fold with DMSO to give 50× concentrations of gradient compound solutions. Finally, 10-fold dilution was carried out with reaction buffer (an aqueous solution of 100 mM HEPES (2-[4-(2-hydroxyethyl)piperazin-1-yl]ethanesulfonic acid) containing 0.01% v/v Triton, pH 8.0) to give 5× concentrations of gradient compound solutions (150 μM, 50 μM, 16.667 μM, 5.556 μM, 1.852 μM, 0.617 μM, 0.206 μM, 0.069 μM, 0.023 μM, and 0.008 μM).
1) Reaction buffer: aqueous solution of 100 mM HEPES (2-[4-(2-hydroxyethyl)piperazin-1-yl]ethanesulfonic acid) containing 0.01% v/v Triton, pH 8.0;
2) Stop solution: aqueous solution of 100 mM HEPES (2-[4-(2-hydroxyethyl)piperazin-1-yl]ethanesulfonic acid) containing 0.015% w/v Brij-35, 0.2% v/v Coating Reagent (coating solution) #3 (PE, part no. 760050) and 50 mM EDTA, pH 8.0;
3) 2.5× enzyme solution: An appropriate amount of PAD4 was diluted to 2.5× (final concentration: 10 nM) with reaction buffer;
4) 2.5× polypeptide solution: An appropriate amount of carboxyfluorescein -labeled peptide (FAM-AcH4(1-5) peptide) and CaCl2) solution was diluted to 2.5× (the final concentration of polypeptide: 5 μM, the final concentration of Ca^2+: 0.1 mM) with reaction buffer.
5 μL of 5× compound solutions or solvents with different concentrations were added to a 384-well plate, 10 μL of 2.5× enzyme solution was then added, and the plate was incubated at room temperature for 10 min. 10 μL of 2.5× polypeptide solution was then added to each well, and the plate was incubated at 28° C. for a certain period of time. 25 μL of stop solution was added to stop reaction. Caliper was used for detection. The inhibition rate was calculated according to the following formula:
Inhibition percentage=(max−transformation)/(max−min)*100.
“max” denotes DMSO control; and “min” denotes low control.

The mark [3] stands for this setting: IV 1 mg/kg, read-out: AUClast iv (area under concentration-time curve 0-24 h).
Where [4] appears, read: IV 1 mg/kg, read-out: tz1/2 iv (terminal half-life) (converted).
The mark [5] stands for this setting: PO 5 mg/kg, read-out: AUClast po (area under concentration-time curve 0-24 h).
Where [6] appears, read: PO 5 mg/kg, read-out: tz1/2 po (terminal half-life) (converted).

T1 sequence (Q9UM07 whole entry): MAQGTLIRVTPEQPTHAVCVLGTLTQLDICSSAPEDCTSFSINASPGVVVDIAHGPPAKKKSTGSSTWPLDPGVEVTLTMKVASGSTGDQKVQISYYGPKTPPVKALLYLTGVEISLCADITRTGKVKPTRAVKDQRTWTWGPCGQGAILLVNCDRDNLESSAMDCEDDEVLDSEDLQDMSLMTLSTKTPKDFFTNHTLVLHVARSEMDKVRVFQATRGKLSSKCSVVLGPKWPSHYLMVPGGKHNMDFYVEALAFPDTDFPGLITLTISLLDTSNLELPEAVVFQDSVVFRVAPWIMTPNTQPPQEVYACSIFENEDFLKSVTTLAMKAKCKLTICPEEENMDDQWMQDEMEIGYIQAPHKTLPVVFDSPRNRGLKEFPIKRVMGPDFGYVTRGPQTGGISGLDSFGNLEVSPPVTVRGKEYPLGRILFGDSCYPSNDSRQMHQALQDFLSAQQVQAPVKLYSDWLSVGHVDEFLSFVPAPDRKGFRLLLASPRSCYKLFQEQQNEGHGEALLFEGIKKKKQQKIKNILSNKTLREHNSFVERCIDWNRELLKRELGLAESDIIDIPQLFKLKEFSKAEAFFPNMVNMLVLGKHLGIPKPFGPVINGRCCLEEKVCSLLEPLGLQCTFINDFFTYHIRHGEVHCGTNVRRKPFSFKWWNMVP

For orientation: bioavailability means the share of a dose that reaches the circulation, judged against a reference dose that is usually intravenous. One may read the clearance as a measure of how efficiently the substance is removed, as volume per time. As a reminder, the IC50 is the concentration that gives 50% inhibition. Higher therefore signals weaker potency in that assay. For `CCn1c(-c2nc3cc(C(=O)N4CCC[C@@H](N)C4)cc(OC)c3n2C)cc2ccsc21` [Compound 3, (R)-(3-aminopiperidin-1-yl)(2-(6-ethyl-6H-thieno[2,3-b]pyrrol-5-yl)-7-methoxy-1-methyl-1H-benzo[d]imidazol-5-yl)methanone], in data set [1] (IV 1 mg/kg, PO 5 mg/kg), the bioavailability was found to be 15.6%. Further, the AUC(0-t) in data set [1] (setting [3]) is 1200 ng·h/mL. Moreover, in data set [1] (IV 1 mg/kg), the clearance was 13.2 mL/min/kg and the Vd amounted to 11.2 L/kg. Besides, in data set [1] (setting [4]), the half-life is 9.97 h. For the same compound, the Tmax in data set [1] (PO 5 mg/kg) was determined as 6 h. Moreover, the AUC(0-t) in data set [1] (setting [5]) was determined as 934 ng·h/mL. This compound yielded a concentration for half-maximal inhibition (IC50) in data set [2] of 200 nM.

For `CCn1c(-c2nc3cc(C(=O)N4CCC[C@@H](N)C4)cc(OC)c3n2C)cc2cc(C)sc21` [Compound 9, (R)-(3-aminopiperidin-1-yl)(2-(6-ethyl-2-methyl-6H-thieno[2,3-b]pyrrol-5-yl)-7-methoxy-1-methyl-1H-benzo[d]imidazol-5-yl)methanone], in data set [1] (IV 1 mg/kg, PO 5 mg/kg), the bioavailability was found to be 41.8%. In addition, the results for the AUC(0-t) in data set [1] (setting [3]) and in data set [1] (setting [5]) were 303 ng·h/mL and 633 ng·h/mL, respectively. The clearance in data set [1] (IV 1 mg/kg) was 43.7 mL/min/kg. In addition, in data set [1] (IV 1 mg/kg), the Vd turned out to be 22 L/kg. Moreover, the half-life was 5.96 h in data set [1] (setting [4]) and 6.33 h in data set [1] (setting [6]). Further, the Tmax in data set [1] (PO 5 mg/kg) came to 6 h. In data set [2], this compound yielded an IC50 of 110 nM.

For `COc1cc(C(=O)N2CCC[C@@H](N)C2)cc2nc(-c3cc4ccsc4n3CC3CC3)n(C)c12` [Compound 18, (R)-(3-aminopiperidin-1-yl)(2-(6-(cyclopropylmethyl)-6H-thieno[2,3-b]pyrrol-5-yl)-7-methoxy-1-methyl-1H-benzo[d]imidazol-5-yl)methanone], the bioavailability in data set [1] (IV 1 mg/kg, PO 5 mg/kg) was determined as 46.6%. The AUC(0-t) in data set [1] (setting [3]) came to 1010 ng·h/mL; in data set [1] (setting [5]), 2360 ng·h/mL. The clearance in data set [1] (IV 1 mg/kg) is 16.7 mL/min/kg. Moreover, the Vd in data set [1] (IV 1 mg/kg) worked out at 5.64 L/kg. The half-life in data set [1] (setting [4]) was 3.92 h; in data set [1] (setting [6]) it was 3.96 h. In addition, the Tmax in data set [1] (PO 5 mg/kg) came to 6 h. In data set [2], this compound gave an IC50 of 36 nM.

Consider `COc1cc(C(=O)N2CCC[C@@H](N)C2)cc2nc(-c3cc4ccsc4n3CC(C)C)n(C)c12` [Compound 20, (R)-(3-aminopiperidin-1-yl)(2-(6-isobutyl-6H-thieno[2,3-b]pyrrol-5-yl)-7-methoxy-1-methyl-1H-benzo[d]imidazol-5-yl)methanone], for which, in data set [1] (IV 1 mg/kg, PO 5 mg/kg), the bioavailability was 71.2%. Further, the results for the AUC(0-t) in data set [1] (setting [3]) and in data set [1] (setting [5]) were 3160 ng·h/mL and 11200 ng·h/mL, respectively. Besides, in data set [1] (IV 1 mg/kg), the clearance is 5 mL/min/kg. Besides, the Vd in data set [1] (IV 1 mg/kg) worked out at 2.86 L/kg. The half-life in data set [1] (setting [4]) was 6.94 h; in data set [1] (setting [6]), 13.2 h. In addition, the Tmax in data set [1] (PO 5 mg/kg) worked out at 8 h. Besides, in data set [2], the IC50 came out at 58 nM.

For the compound `COc1cc(C(=O)N2CCC[C@@H](N)C2)cc2nc(-c3cc4ccsc4n3CC(F)(F)F)n(C)c12` [Compound 21, (R)-(3-aminopiperidin-1-yl)(7-methoxy-1-methyl-2-(6-(2,2,2-trifluoroethyl)-6H-thieno[2,3-b]pyrrol-5-yl)-1H-benzo[d]imidazol-5-yl)methanone], the bioavailability in data set [1] (IV 1 mg/kg, PO 5 mg/kg) is 33.3%. Further, the AUC(0-t) in data set [1] (setting [3]) was 772 ng·h/mL; in data set [1] (setting [5]), 1290 ng·h/mL. Besides, the clearance in data set [1] (IV 1 mg/kg) was 15.3 mL/min/kg. Moreover, the Vd in data set [1] (IV 1 mg/kg) is 8.73 L/kg. Besides, the results for the half-life in data set [1] (setting [4]) and in data set [1] (setting [6]) were 6.93 h and 4.7 h, respectively. Besides, in data set [1] (PO 5 mg/kg), the Tmax was 8 h. For the same compound, in data set [2], it took 55 nM to reach half-maximal inhibition (IC50).

For the compound `COc1cc(C(=O)N2CCC[C@@H](N)C2)cc2nc(-c3cc4ccsc4n3CC3CCC3)n(C)c12` [Compound 22, (R)-(3-aminopiperidin-1-yl)(2-(6-(cyclobutylmethyl)-6H-thieno[2,3-b]pyrrol-5-yl)-7-methoxy-1-methyl-1H-benzo[d]imidazol-5-yl)methanone], the bioavailability in data set [1] (IV 1 mg/kg, PO 5 mg/kg) amounted to 35%. Also, the values for the AUC(0-t) in data set [1] (setting [3]) and in data set [1] (setting [5]) were 7680 ng·h/mL and 13500 ng·h/mL, respectively. Besides, in data set [1] (IV 1 mg/kg), the clearance was 1.67 mL/min/kg. Moreover, in data set [1] (IV 1 mg/kg), the Vd was found to be 1.76 L/kg. Moreover, the half-life in data set [1] (setting [4]) was 14.6 h; in data set [1] (setting [6]), 12 h. Also, the Tmax in data set [1] (PO 5 mg/kg) amounted to 6 h. Besides, in data set [2], the IC50 stood at 40 nM.

Turning to `COc1cc(C(=O)N2CCC[C@@H](N)C2)cc2nc(-c3cc4cc(C)sc4n3CC3CC3)n(C)c12` [Compound 23, (R)-(3-aminopiperidin-1-yl)(2-(6-(cyclopropylmethyl)-2-methyl-6H-thieno[2,3-b]pyrrol-5-yl)-7-methoxy-1-methyl-1H-benzo[d]imidazol-5-yl)methanone], the bioavailability in data set [1] (IV 1 mg/kg, PO 5 mg/kg) turned out to be 31.2%. Further, the figures for the AUC(0-t) in data set [1] (setting [3]) and in data set [1] (setting [5]) were 887 ng·h/mL and 1380 ng·h/mL, respectively. In data set [1] (IV 1 mg/kg), the clearance is 18 mL/min/kg. Moreover, the Vd in data set [1] (IV 1 mg/kg) came out at 11.6 L/kg. Further, the half-life in data set [1] (setting [4]) was 7.9 h; in data set [1] (setting [6]), 7.52 h. Also, the Tmax in data set [1] (PO 5 mg/kg) worked out at 6 h. The compound further returned an IC50 in data set [2] of 25 nM.

The record behind these values is US20200407370A1, “PEPTIDYLARGININE DEIMINASE INHIBITOR AND USE THEREOF” (Nanjing Transthera Biosciences Co., Ltd., priority 2018, published 2020).
